For the first experiment, the target named is T1, β-catenin/BCL9 PPI (Homo sapiens, UniProt P35222).
T1 construct: Full-length β-catenin (residues 1-781) were cloned into a pET-28b vector; made in house; host or cells: E. coli BL21 DE3 (β-catenin); BCL9 peptide synthesized by InnoPep Inc
T1 sequence (P35222 1-781): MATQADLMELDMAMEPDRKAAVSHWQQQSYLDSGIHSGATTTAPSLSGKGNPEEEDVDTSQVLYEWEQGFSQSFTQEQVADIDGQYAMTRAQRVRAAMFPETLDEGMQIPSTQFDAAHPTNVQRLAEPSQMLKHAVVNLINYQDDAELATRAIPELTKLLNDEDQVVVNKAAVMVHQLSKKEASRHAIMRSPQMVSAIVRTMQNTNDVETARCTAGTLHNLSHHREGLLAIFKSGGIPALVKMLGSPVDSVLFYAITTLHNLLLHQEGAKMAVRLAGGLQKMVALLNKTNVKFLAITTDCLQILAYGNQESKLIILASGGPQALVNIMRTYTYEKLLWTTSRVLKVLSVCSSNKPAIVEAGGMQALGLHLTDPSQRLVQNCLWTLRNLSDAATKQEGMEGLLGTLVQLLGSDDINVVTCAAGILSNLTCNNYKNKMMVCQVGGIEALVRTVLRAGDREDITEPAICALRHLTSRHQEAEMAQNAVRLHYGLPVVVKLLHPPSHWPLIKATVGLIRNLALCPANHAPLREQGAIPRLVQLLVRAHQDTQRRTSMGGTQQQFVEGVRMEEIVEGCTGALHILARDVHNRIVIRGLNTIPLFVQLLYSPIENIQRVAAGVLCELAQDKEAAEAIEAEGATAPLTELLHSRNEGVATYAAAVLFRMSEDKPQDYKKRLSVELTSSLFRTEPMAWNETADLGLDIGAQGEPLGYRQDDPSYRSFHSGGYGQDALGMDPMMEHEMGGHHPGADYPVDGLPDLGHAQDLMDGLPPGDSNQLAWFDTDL
Kind of experiment: AlphaScreen competitive inhibition assay of the β-catenin/BCL9 PPI. It counts as binding. Conditions: Table 1, inhibitors 1-14; read-out: Ki. The procedure: AlphaScreen Assays of β-Catenin and BCL9 Interaction. Experiments were performed in white opaque 384-well plates from PerkinElmer (Waltham, Mass.), and the samples were read on a Synergy 2 plate reader (Biotek, Winooski, Vt.) with excitation at 680 nm and emission at 570 nm. The standard AlphaScreen protocol was used with a sensitivity setting of 200. All dilutions were made in 1× assay buffer containing 25 mM Hepes (pH 7.4), 100 mM NaCl, 0.01% Triton X-100 and 0.1% BSA to minimize nonspecific interactions.
For the β-catenin/BCL9 assay, 5 nM biotinylated BCL9 and 40 nM His6-tagged β-catenin were incubated in assay buffer at 4° C. for 30 min. For the β-catenin/E-cadherin assay, 10 nM biotinylated human E-cadherin, and 40 nM His6-tagged human β-catenin were added and incubated in assay buffer at 4° C. for 30 min. Different concentrations of the tested inhibitor were added and incubated in 20 μL assay buffer at 4° C. for another 1 h. All of the assay plates were covered and gently mixed on an orbital shaker. The donor and acceptor beads were then added to the plates to a final concentration of 10 μg/mL in […]. The mixture was incubated for 1 h at 4° C. before detection. The IC50 value was determined by nonlinear least-square analysis of GraphPad Prism 5.0. […] All of the experiments were performed in triplicate and carried out in the presence of 1% DMSO for small-molecule inhibitors. Each compound was assayed at least by two independent experiments. The results were expressed as mean±standard deviation. The inhibitor selectivity for β-catenin/BCL9 over β-catenin/E-canderin interactions was defined as the ratio of the respective Ki value of β-catenin/E-cadherin interactions over that of β-catenin/BCL9 interactions.
In general terms: Bead proximity is the source of the signal in Alpha formats.
Usually Ki stands for the dissociation constant of the complex between target and ligand, obtained from inhibition or displacement. For `CC(C)c1ccc(COC(=O)[C@@H]2CCCN(c3cccc(OC(C)(C)C(=O)O)c3)C2)cc1` [Compound 1, (R)-2-(3-(3-(((4-isopropylbenzyl)oxy)carbonyl)piperidin-1-yl)phenoxy)-2-methylpropanoic acid], the Ki is above 90 µM.

`CC(C)c1ccc(COC(=O)[C@H]2CCCN(c3cccc(OC(C)(C)C(=O)O)c3)C2)cc1` [Compound 2, (S)-2-(3-(3-(((4-isopropylbenzyl)oxy)carbonyl)piperidin-1-yl)phenoxy)-2-methylpropanoic acid]: the Ki was above 90 µM.

On to `CC(C)c1ccc(CNC(=O)[C@@H]2CCCN(c3cccc(OC(C)(C)C(=O)O)c3)C2)cc1` [Compound 3, (R)-2-(3-(3-((4-isopropylbenzyl)carbamoyl)piperidin-1-yl)phenoxy)-2-methylpropanoic acid], for which the Ki was at most 50 µM.

With `CC(C)c1ccc(CNC(=O)[C@H]2CCCN(c3cccc(OC(C)(C)C(=O)O)c3)C2)cc1` [Compound 4, (S)-2-(3-(3-((4-isopropylbenzyl)carbamoyl)piperidin-1-yl)phenoxy)-2-methylpropanoic acid], the inhibition constant (Ki) was above 90 µM.

For `CC(C)c1ccc(CN(C)C(=O)[C@@H]2CCCN(c3cccc(OC(C)(C)C(=O)O)c3)C2)cc1` [Compound 5, (R)-2-(3-(3-((4-isopropylbenzyl)(methyl)carbamoyl)piperidin-1-yl)phenoxy)-2-methylpropanoic acid], the Ki was below 50 µM.

For the compound `CCN(Cc1ccc(C(C)C)cc1)C(=O)[C@@H]1CCCN(c2cccc(OC(C)(C)C(=O)O)c2)C1` [Compound 7, (R)-2-(3-(3-(ethyl(4-isopropylbenzyl)carbamoyl)piperidin-1-yl)phenoxy)-2-methylpropanoic acid], the Ki was above 90 µM.

With `CCN(Cc1ccc(C(C)C)cc1)C(=O)[C@H]1CCCN(c2cccc(OC(C)(C)C(=O)O)c2)C1` [Compound 8, (S)-2-(3-(3-(ethyl(4-isopropylbenzyl)carbamoyl)piperidin-1-yl)phenoxy)-2-methylpropanoic acid], the Ki was above 90 µM.

As for `CC(C)c1ccc(CN(C(=O)[C@@H]2CCCN(c3cccc(OC(C)(C)C(=O)O)c3)C2)C(C)C)cc1` [Compound 9, (R)-2-(3-(3-(isopropyl(4-isopropylbenzyl)carbamoyl)piperidin-1-yl)phenoxy)-2-methylpropanoic acid], the Ki is above 90 µM.

Regarding `CC(C)c1ccc(CN(C(=O)[C@H]2CCCN(c3cccc(OC(C)(C)C(=O)O)c3)C2)C(C)C)cc1` [Compound 10, (S)-2-(3-(3-(isopropyl(4-isopropylbenzyl)carbamoyl)piperidin-1-yl)phenoxy)-2-methylpropanoic acid], the inhibition constant (Ki) was at most 50 µM.

Regarding `CC(C)c1ccc(CN(C(=O)[C@@H]2CCCN(c3cccc(OC(C)(C)C(=O)O)c3)C2)C2CC2)cc1` [Compound 11, (R)-2-(3-(3-(cyclopropyl(4-isopropylbenzyl)carbamoyl)piperidin-1-yl)phenoxy)-2-methylpropanoic acid], the Ki is at most 50 µM.

With `CC(C)c1ccc(CN(C(=O)[C@H]2CCCN(c3cccc(OC(C)(C)C(=O)O)c3)C2)C2CC2)cc1` [Compound 12, (S)-2-(3-(3-(cyclopropyl(4-isopropylbenzyl)carbamoyl)piperidin-1-yl)phenoxy)-2-methylpropanoic acid], the inhibition constant Ki is above 90 µM.

For `CC(C)c1ccc(CCNC(=O)[C@@H]2CCCN(c3cccc(OC(C)(C)C(=O)O)c3)C2)cc1` [Compound 13, (R)-2-(3-(3-((4-isopropylphenethyl)carbamoyl)piperidin-1-yl)phenoxy)-2-methylpropanoic acid], the Ki is at most 50 µM.

The same experiment, now with this note: Table 9, inhibitors 93-98, racemic; read-out: Ki.
`CC(C)c1ccc(CNC(=O)C2CCCN(c3cccc(OC(C)(C)C(=O)O)c3)C2)cc1` (racemic) [Compound 93, 2-(3-(3-((4-isopropylbenzyl)carbamoyl)piperidin-1-yl)phenoxy)-2-methylpropanoic acid]: the inhibition constant (Ki) was at most 90 µM.

With `CC(C)c1ccc(CN(C)C(=O)C2CCCN(c3cccc(OC(C)(C)C(=O)O)c3)C2)cc1` (racemic) [Compound 95, 2-(3-(3-((4-isopropylbenzyl)(methyl)carbamoyl)piperidin-1-yl)phenoxy)-2-methylpropanoic acid], the Ki was at most 90 µM.

Take `CC(C)c1ccc(CN(C(=O)C2CCCN(c3cccc(OC(C)(C)C(=O)O)c3)C2)C(C)C)cc1` (racemic) [Compound 97, 2-(3-(3-(isopropyl(4-isopropylbenzyl)carbamoyl)piperidin-1-yl)phenoxy)-2-methylpropanoic acid]: the Ki was at most 90 µM.

The experiment is the same for the next values; noted with them: Table 10, inhibitors 99-106, racemic; read-out: Ki ± SD.
In the case of `CC(C)(Oc1cccc(N2CCCC(C(=O)N(Cc3ccc(-c4cn[nH]c4)cc3)C3CC3)C2)c1)C(=O)O` (racemic) [Compound 99, 2-(3-(3-((4-(1H-pyrazol-4-yl)benzyl)(cyclopropyl)carbamoyl)piperidin-1-yl)phenoxy)-2-methylpropanoic acid], the inhibition constant (Ki) was above 90 µM.

With `Cn1cc(-c2ccc(CN(C(=O)C3CCCN(c4cccc(OC(C)(C)C(=O)O)c4)C3)C3CC3)cc2)cn1` (racemic) [Compound 100, 2-(3-(3-(cyclopropyl(4-(1-methyl-1H-pyrazol-4-yl)benzyl)carbamoyl)piperidin-1-yl)phenoxy)-2-methylpropanoic acid], the inhibitory constant (Ki) is above 90 µM.

As for `CC(C)(Oc1cccc(N2CCCC(C(=O)N(Cc3ccc(-c4ccn[nH]4)cc3)C3CC3)C2)c1)C(=O)O` (racemic) [Compound 101, 2-(3-(3-((4-(1H-pyrazol-5-yl)benzyl)(cyclopropyl)carbamoyl)piperidin-1-yl)phenoxy)-2-methylpropanoic acid], the Ki is at most 90 µM.

Regarding `Cn1nccc1-c1ccc(CN(C(=O)C2CCCN(c3cccc(OC(C)(C)C(=O)O)c3)C2)C2CC2)cc1` (racemic) [Compound 102, 2-(3-(3-(cyclopropyl(4-(1-methyl-1H-pyrazol-5-yl)benzyl)carbamoyl)piperidin-1-yl)phenoxy)-2-methylpropanoic acid], the Ki is above 90 µM.

Regarding `CC(C)(Oc1cccc(N2CCCC(C(=O)N(Cc3ccc(-c4cccs4)cc3)C3CC3)C2)c1)C(=O)O` (racemic) [Compound 103, 2-(3-(3-(cyclopropyl(4-(thiophen-2-yl)benzyl)carbamoyl)piperidin-1-yl)phenoxy)-2-methylpropanoic acid], the Ki was at most 30 µM.

`CC(C)(Oc1cccc(N2CCCC(C(=O)N(Cc3ccc(-c4ccsc4)cc3)C3CC3)C2)c1)C(=O)O` (racemic) [Compound 104, 2-(3-(3-(cyclopropyl(4-(thiophen-3-yl)benzyl)carbamoyl)piperidin-1-yl)phenoxy)-2-methylpropanoic acid]: the Ki was at most 30 µM.

For `CC(C)(Oc1cccc(N2CCCC(C(=O)N(Cc3ccc(-c4ccco4)cc3)C3CC3)C2)c1)C(=O)O` (racemic) [Compound 105, 2-(3-(3-(cyclopropyl(4-(furan-2-yl)benzyl)carbamoyl)piperidin-1-yl)phenoxy)-2-methylpropanoic acid], the Ki is at most 90 µM.

For `CC(C)(Oc1cccc(N2CCCC(C(=O)N(Cc3ccc(-c4ccoc4)cc3)C3CC3)C2)c1)C(=O)O` (racemic) [Compound 106, 2-(3-(3-(cyclopropyl(4-(furan-3-yl)benzyl)carbamoyl)piperidin-1-yl)phenoxy)-2-methylpropanoic acid], the Ki is above 90 µM.

Staying with this experiment, now noted: Table 11, inhibitors 107-108, racemic; read-out: Ki ± SD.
Consider `COC(=O)C(C)(C)Oc1cccc(N2CCCC(C(=O)N(Cc3ccc(-c4cccs4)cc3)C3CC3)C2)c1` (racemic) [Compound 107, methyl 2-(3-(3-(cyclopropyl(4-(thiophen-2-yl)benzyl)carbamoyl)piperidin-1-yl)phenoxy)-2-methylpropanoate], for which the inhibition constant (Ki) was above 90 µM.

(Values after US20220411372A1, “SMALL-MOLECULE INHIBITORS FOR THE B-CATENIN/B-CELL LYMPHOMA 9 PROTEIN-PROTEIN INTERACTION” (H. Lee Moffitt Cancer Center and Research Institute, Inc., priority 2019, published 2022).)
